For eight compounds, inhibition in vivo results are on record in patent US4935434A, “Antiarthritic isoxazole-4-carboxamides” (Bristol-Myers Company, priority 1988, dated 1990).

Experiment [1] relates to adjuvant-induced polyarthritis. Description: Modified developing adjuvant arthritis in rats (adjuvant-induced polyarthritis, AIP). In kind it is in vivo, male Lewis rats. The note with it: Rattus norvegicus, po; for inhibition in vivo at 50 mg/kg: 50 mg/kg once daily p.o. d. 1-8; for inhibition in vivo at 76 mg/kg: 76 mg/kg once daily p.o. d. 1-8; for inhibition in vivo at 89 mg/kg: 89 mg/kg (d. 1-5) once daily p.o.; for inhibition in vivo at 100 mg/kg: 100 mg/kg once daily p.o. d. 1-8. As to the method:
A. Modified developing adjuvant arthritis in rats.
This test is based on the procedure originally described by Pearson (Proc. Soc. Biol. Med., 1956, pp 91-5). Each experimental group used six male Lewis rats weighing approx. 250 gm. Arthritis was produced by a single intradermal injection of Mycobacterium butyricum (0.6 mg in 0.1 ml mineral oil) into the base of the tail. Test compounds were administered orally, once daily, starting on the day of inoculation (day 1) through day 8. The initial dosage was reduced during this period when side effects were observed. The paw volume (average of two hind paws) was measured by the mercury displacement method at least twice weekly during the course of the experiment (40 to 42 days). The efficacy of a compound was expressed as the percent reduction of hind paw volume of treated vs. untreated rats using the following equation: [formula]
^a once daily, p.o., from d. 1-8 (unless otherwise specified).
^b % inhibition of paw edema: 0 = <25; + = 25-<40; ++ = 40-<60; +++ =

Experiment [2] concerns carragenin-induced paw edema. In words: Carrageenin induced paw edema in the rat (CIP). In kind it is in vivo, male Sprague Dawley rats. The conditions noted are these: single oral dose 50 mg/kg 30 min. prior to carrageenin, determined 4 hrs. after injection, read-out: CIP % inhib. (reduction in paw volume). As to the method: B. Carrageenin induced paw edema in the rat.
This test is based on the procedure originally described by Holsapple and Yim (Inflammation, 1984, 8:223). Six male Sprague Dawley rats weighing approx. 300 gm were used in each experimental group. The rats had been starved for 24 hours prior to injection of 0.1 ml of 1% carrageenin into the plantar surface of the left hind paw. Test compounds were dosed orally 30 minutes prior to carrageenin administration. The volumes of the left hind paws were measured by mercury displacement at 2,4, and 6 hours following carrageenin injection. The efficacy of a compound was expressed as the percent inhibition of carrageenin injected paw volume as compared to non-injected paw using the following equation: [formula] The peak of drug effects usually occurred 2-4 hours following carrageenin injection.
^c test compound administered as a single oral dose of 50 mg/kg 30
min. prior to carrageenin injection; % inhibition determined 4 hrs. after
carrageenin injection; I = <25% reduction in paw volume and A =
≥25% reduction in paw volume.

Setting [3] is: 528 h, d. 20-22, read-out: AIP % inhib. (% inhibition of paw edema) d. 20-22.
Setting [4] is: 1008 h, d. 40-42, read-out: AIP % inhib. (% inhibition of paw edema) d. 40-42.

Each structure is given as a SMILES string. Read-outs that look alike come from different tables or passages of the source. Some results are limits rather than exact numbers.

In the case of `O=C(Nc1cccc(C(F)(F)F)c1)c1cnoc1C1CC1` [Example 5, 5-Cyclopropylisoxazole-4-carboxylic acid 4-(3-trifluoromethyl)anilide], the inhibition in vivo at 50 mg/kg was 40 to 60% in experiment [1] (setting [3]), 60 to 80% in experiment [1] (setting [4]) and at least 25% in experiment [2].

In the case of `C#CCNC(=O)c1cnoc1C1CC1` [Example 3, 5-Cyclopropylisoxazole-4-[N-(2-propynyl)]carboxamide], the inhibition in vivo at 50 mg/kg is 40 to 60% in experiment [1] (setting [3]), 40 to 60% in experiment [1] (setting [4]) and under 25% in experiment [2].

For `Cc1oncc1C(=O)NCc1ccc(C(F)(F)F)cc1` [Example 8, 5-Methylisoxazole-4-(N-4-trifluoromethylbenzyl)carboxamide], in experiment [2], the inhibition in vivo at 50 mg/kg was under 25%.

Consider `CC(C)NC(=O)c1cnoc1C1CC1` [Example 1, 5-Cyclopropylisoxazole-4-(N-isopropyl)carboxamide], for which the values for the inhibition in vivo at 76 mg/kg in experiment [1] (setting [3]) and in experiment [1] (setting [4]) were 25 to 40% and 40 to 60%, respectively. In addition, the inhibition in vivo at 50 mg/kg in experiment [2] is under 25%.

As for `CC(C)(C)NC(=O)c1cnoc1C1CC1` [Example 2, 5-Cyclopropylisoxazole-4-(N-tert-butyl)carboxamide], the inhibition in vivo at 50 mg/kg is 40 to 60% in experiment [1] (setting [3]), 40 to 60% in experiment [1] (setting [4]) and under 25% in experiment [2].

Take `O=C(NC1CC1)c1cnoc1C1CC1` [Example 4, 5-Cyclopropylisoxazole-4-(N-cyclopropyl)carboxamide]: the inhibition in vivo at 89 mg/kg fell in the range of 40 to 60% in experiment [1] (setting [3]) and 60 to 80% in experiment [1] (setting [4]). For the same compound, the inhibition in vivo at 50 mg/kg in experiment [2] is under 25%.

On to `O=C(Nc1ccc(C(F)(F)F)cc1)c1cnoc1C1CC1` [Example 7, 5-Cyclopropylisoxazole-4-carboxylic acid 4-trifluoromethylanilide], for which the inhibition in vivo at 50 mg/kg in experiment [2] is at least 25%.

`COc1ccc(NC(=O)c2cnoc2C2CC2)cc1` [Example 6, 5-Cyclopropylisoxazole-4-carboxylic acid (4-methoxy)anilide]: the inhibition in vivo at 100 mg/kg in experiment [1] (setting [3]) is under 25%; in experiment [1] (setting [4]), 40 to 60%. In addition, the inhibition in vivo at 50 mg/kg in experiment [2] was under 25%.
